System: MCF7
Assay: Growth inhibition of human MCF7 cells by MTT assay
Assay type: functional, cell-based

Compound | IC50 [µM]
COc1ccc2c3c([nH]c2c1)-c1ccccc1NC(=O)C3 | 0.6
O=C1Cc2c([nH]c3ccccc23)-c2ccccc2N1 [PAULLONE] | 1.2
